Our source for the IC50 values is patent publication US7473694B2, “Pyrazolopyrimidine derivatives or pharmaceutically acceptable salts thereof” (Teijin Pharma Limited, priority 2005, dated 2009).

Structures are written as SMILES.

This test deals with recombinant human MAPKAP-K2 (Homo sapiens, UniProt P49137). Nature of the test: Inhibition of MAPKAP-K2 enzyme activity (33P-ATP peptide substrate phosphorylation). It is filed as biochemical. The following applies: recombinant human MAPKAP-K2 10 mU, room temperature 30 min, peptide substrate Lys-Lys-Leu-Asn-Arg-Thr-Leu-Ser-Val-Ala; read-out: Activity strength (IC50 against MAPKAP-K2). The method, then: General Measurement Method for Determining Inhibition of MAPKAP-K2 Enzyme Activity
recombinant human MAPKAP-K2, sequence (P49137 whole entry): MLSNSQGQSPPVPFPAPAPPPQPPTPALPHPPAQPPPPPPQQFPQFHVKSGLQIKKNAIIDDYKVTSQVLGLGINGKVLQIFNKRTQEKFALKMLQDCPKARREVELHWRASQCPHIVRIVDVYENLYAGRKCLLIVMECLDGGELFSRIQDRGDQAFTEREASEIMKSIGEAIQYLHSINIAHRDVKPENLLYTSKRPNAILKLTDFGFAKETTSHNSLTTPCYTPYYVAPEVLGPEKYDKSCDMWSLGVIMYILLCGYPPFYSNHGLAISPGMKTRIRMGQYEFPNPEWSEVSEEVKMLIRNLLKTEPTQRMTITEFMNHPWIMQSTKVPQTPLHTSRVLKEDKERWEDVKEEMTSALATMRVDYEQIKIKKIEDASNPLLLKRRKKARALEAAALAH
(Preparation of Solutions of Compounds)
Each compound was dissolved to DMSO to prepare a solution with a concentration of 20 mmol/L and this solution was stored at −20° C. This stock solution was diluted with DMSO successively to prepare solutions with 200-fold concentrations of a necessary range. These solutions were further diluted with water at a ratio of 1:20 to prepare solutions with 10-fold concentrations of a necessary range. Each of these solutions (5 μL) was used for each reaction in 50 μL-scale. Through the dilution series of all compounds, the final DMSO concentration was kept at 0.5%. Conventional tests for the compounds were carried out at a final concentration ranging from 100 μmol/L to 0.03 μmol/L, but in some cases, tests were carried out at lower concentrations, depending on activity.
(Measurements of MAPKAP-K2 Enzyme Activity)
To a DMSO solution (5 μL) containing a test compound at 5%, a solution (25 μL) containing a peptide substrate [peptide substrate […], ATP 20 μmol/L, Tris buffer 60 mmol/L (pH 7.5), EGTA 0.2 mmol/L, β-mercaptoethanol 0.2%, magnesium acetate 20 mmol/L, [γ-33P]ATP 0.1 μCi (specific radioactivity ca. 110 TBq/mmol)] was added. The reaction was initiated by further adding a solution (20 μL) containing MAPKAP-K2 enzyme [recombinant human MAPKAP-K2 10 mU, Tris buffer 50 mmol/L (pH 7.5), EGTA 0.1 mmol/L, β-mercaptoethanol 0.1%, BSA 0.1%]. After the reaction was carried out at room temperature for 30 min, 200 mmol/L phosphoric acid (50 μL) was added to quench the reaction, and 90 μL of the reaction mixture was adsorbed on a multiscreen PH plate (Millipore). The plate was washed with 100 mmol/L phosphoric acid. After the plate was dried, 30 μL of MicroScint™-O (Perkin-Elmer) was added here, and the radioactivity (cpm) was measured on a scintillation counter to determine the inhibitory activity. The peptide substrate was Lys-Lys-Leu-Asn-Arg-Thr-Leu-Ser-Val-Ala.
(Note) % Reference=(X−B)/(Tot−B)×100 % Inhibition=100%−% Reference • X=count per minute of the well with a test compound • B=count per minute of the well without the enzyme • Tot=count per minute of the well with only DMSO solvent and without a test compound (Calculation of MAPKAP-K2 Inhibitory Activity) • IC50 value=a concentration of compound at which 50% inhibition is observed • The efficacy of each compound in Tables A to G against MAPKAP-K2 is listed in the following Table J.
By IC50 is commonly meant the midpoint of a concentration-inhibition curve. For `CNc1c2c(nc3ccnn13)N([C@H]1CCCNC1)CC2` [A-096], the IC50 was below 10 µM. Regarding `COC(=O)c1ccc(Nc2c3c(nc4ccnn24)N(C2CCCNC2)CC3)cc1` (stereo not shown) [A-099], the IC50 was below 10 µM. The same measure for `CCOc1ccc(Nc2c3c(nc4ccnn24)N(C2CCNCC2)CCC3)cc1` [B-017]: below 10 µM; for `CCOc1ccc(Nc2c3c(nc4ccnn24)N([C@@H]2CCCC[C@@H]2N)CCC3)cc1` [B-003]: 10 to 50 µM. Take `CCOc1ccc(Nc2c3c(nc4ccnn24)N(C2CCN(Cc4ccccc4)C2)CC3)cc1` (stereo not shown) [A-010]: the IC50 was in the range of 10 to 50 µM. The same measure for `CCOc1ccc(Nc2c3c(nc4ccnn24)N(CCN(C)C)CCC3)cc1` [B-007]: 50 to 100 µM; for `c1cc2nc3c(c(Nc4ccc5cn[nH]c5c4)n2n1)CCN3[C@H]1CCCNC1` [A-058]: below 10 µM. The same measure for `CCOc1ccc(Nc2c3c(nc4ccnn24)N(C[C@H]2CCCNC2)C(=O)C3)cc1` [D-002]: 50 to 100 µM. For `COCCOc1ccc(Nc2c3c(nc4ccnn24)N([C@H]2CCCNC2)CC3)cc1` [A-023, (S)-[4-(2-methoxyethoxy)phenyl](5-piperidin-3-yl-6,7-dihydro-5H-1,4,5,8a-tetraaza-s-indacen-8-yl)amine] the value was below 10 µM; for `CCOc1ccc(Nc2c3c(nc4ccnn24)N(C2CCNC2)CC3)cc1` (stereo not shown) [A-013], below 10 µM. As to `c1ccc(Nc2c3c(nc4ccnn24)N([C@H]2CCCNC2)CC3)cc1` [A-032], the half-inhibitory concentration (IC50) is below 10 µM.

Consider `CC(C)(C)CNc1c2c(nc3ccnn13)N([C@H]1CCCNC1)CC2` [A-026], for which the IC50 is below 10 µM. For `CCOc1ccc(Nc2c3c(nc4ccnn24)N([C@H]2CC[C@H](N)CC2)CCC3)cc1` [B-002, [5-(4-aminocyclohexyl)-5,6,7,8-tetrahydro-1,4,5,9a-tetraazacyclopenta[b]naphthalen-9-yl](4-ethoxyphenyl)amine] the value was below 10 µM; for `CCOc1ccc(Nc2c3c(nc4ccnn24)N([C@H]2CC[C@H](N)CC2)C(=O)C3)cc1` [D-006], 10 to 50 µM; for `CCOc1ccc(Nc2c3c(nc4ccnn24)N(CCCN)CC3)cc1` [A-006], below 10 µM.

Take `CCOc1ccc(Nc2c3c(nc4ccnn24)N(O)CC3)cc1` [A-020, 8-(4-ethoxyphenylamino)-6,7-dihydro-1,4,5,8a-tetraaza-s-indacen-5-ol]: the IC50 was below 10 µM. The same measure for `CCOc1ccc(Nc2c3c(nc4ccnn24)N(CCCN)CCC3)cc1` [B-015]: 10 to 50 µM; for `FC(F)(F)c1nc2cc(Nc3c4c(nc5ccnn35)N([C@H]3CCCNC3)CC4)ccc2[nH]1` [A-091]: below 10 µM. For `CCOc1ccc(Nc2c3c(nc4ccnn24)N([C@H]2CCCNC2)CC=CC3)cc1` [G-001, (S)-(4-ethoxyphenyl)(5-piperidin-3-yl-6,9-dihydro-5H-1,4,5,10a-tetraazacyclohepta[f]inden-10-yl)amine] the value was below 10 µM. As to `CCOc1ccc(Nc2c3c(nc4ccnn24)N(CC2CCCNC2)CC3)cc1` (stereo not shown) [A-014], the IC50 is 50 to 100 µM. The same measure for `CCOc1ccc(Nc2c3c(nc4ccnn24)N([C@H]2CCCNC2)C(=O)C3)cc1` [D-001]: 10 to 50 µM. In the case of `CCOc1ccc(Nc2c3c(nc4ccnn24)N([C@H]2CC[C@H](N)CC2)CC3)cc1` [A-002], the IC50 is below 10 µM. The same measure for `CCOc1ccc(Nc2c3c(nc4ccnn24)N(C2CCCNC2)CCC3)cc1` (stereo not shown) [B-014]: below 10 µM; for `CCOc1ccc(Nc2c3c(nc4ccnn24)N([C@H]2CCCNC2)CC3)cc1` [A-008, (S)-(4-ethoxyphenyl)(5-piperidin-3-yl-6,7-dihydro-5H-1,4,5,8a-tetraaza-s-indacen-8-yl)amine]: below 10 µM; for `CCOc1ccc(Nc2c3cc(CO)n([C@H]4CCCNC4)c3nc3ccnn23)cc1` [F-002]: 10 to 50 µM.

As for `CCOc1ccc(Nc2c3c(nc4c(F)cnn24)N([C@H]2CCCNC2)CC3)cc1` [A-018, (S)-(4-Ethoxyphenyl)(3-fluoro-5-piperidin-3-yl-6,7-dihydro-5H-1,4,5,8a-tetraaza-s-indacen-8-yl)amine], the IC50 is below 10 µM.

`c1cc2nc3c(c(Nc4ccc5sccc5c4)n2n1)CCN3[C@H]1CCCNC1` [A-100]: the IC50 was below 10 µM. For the compound `c1coc(Nc2c3c(nc4ccnn24)N([C@H]2CCCNC2)CC3)c1` [A-095, (S)-furan-2-yl-(5-piperidin-3-yl-6,7-dihydro-5H-1,4,5,8a-tetraaza-s-indacen-8-yl)amine], the IC50 is below 10 µM. For `CCOc1ccc(Nc2c3c(nc4ccnn24)N(CC(C)(C)CN)CC3)cc1` [A-007], the IC50 fell in the range of 50 to 100 µM.

As to `CCOc1ccc(Nc2c3c(nc4ccnn24)N(C2CCCC(N)C2)CC3)cc1` (stereo not shown) [A-003], the IC50 fell in the range of 10 to 50 µM. For the compound `Nc1c2c(nc3ccnn13)N([C@H]1CCCNC1)CC2` [A-092, (S)-5-piperidin-3-yl-6,7-dihydro-5H-1,4,5,8a-tetraaza-s-indacen-8-ylamine], the IC50 was below 10 µM. Consider `CCOc1ccc(Nc2c3c(nc4ccnn24)N(C2CCNCC2)CC3)cc1` [A-009], for which the IC50 is below 10 µM. In the case of `CCOc1ccc(Nc2c3c(nc4ccnn24)N(C2CCNC2)CCC3)cc1` (stereo not shown) [B-021], the IC50 is below 10 µM. Regarding `CCOc1ccc(Nc2c3c(nc4ccnn24)N([C@H]2CCCC[C@@H]2N)CC3)cc1` [A-004], the IC50 was 50 to 100 µM. Take `CCOc1ccc(Nc2c3ccn([C@H]4CCCNC4)c3nc3ccnn23)cc1` [F-001, (S)-(4-ethoxyphenyl)(5-piperidin-3-yl-5H-14,5,8a-tetraaza-s-indacen-8-yl)amine]: the IC50 is below 10 µM. The same measure for `CCOc1ccc(Nc2c3c(nc4ccnn24)N([C@H]2CCCNC2)CCCC3)cc1` [C-001, (S)-(4-ethoxyphenyl)(5-piperidin-3-yl-6,7,8,9-tetrahydro-5H-1,4,5,10a-tetraazacyclohepta[f]inden-10-yl)amine]: below 10 µM; for `CCOc1ccc(Nc2c3c(nc4ccnn24)N(C2CCN(Cc4ccccc4)C2)CCC3)cc1` (stereo not shown) [B-016]: 10 to 50 µM. The same measure for `CCOc1ccc(Nc2c3c(nc4c(F)c(F)nn24)N([C@H]2CCCNC2)CC3)cc1` [A-019, (S)-(2,3-Difluoro-5-piperidin-3-yl-6,7-dihydro-5H-1,4,5,8a-tetraaza-s-indacen-8-yl)(4-ethoxyphenyl)amine]: 10 to 50 µM; for `CCOc1ccc(Nc2c3c(nc4ccnn24)N(C2CCN(CC)C2)CC3)cc1` (stereo not shown) [A-012]: 10 to 50 µM. For `CCOc1ccc(Nc2c3c(nc4ccnn24)N(CCN)C(=O)C3)cc1` [D-003] the value was 50 to 100 µM; for `CCOc1ccc(Nc2c3c(nc4ccnn24)N(Cc2cccnc2)CCC3)cc1` [B-018], 50 to 100 µM. Take `CCOc1ccc(Nc2c3c(nc4ccnn24)N([C@H]2CCCNC2)C(CO)C3)cc1` (stereo partly drawn) [A-024, (S)-{8-(4-ethoxyphenylamino)-5-piperidin-3-yl-6,7-dihydro-5H-1,4,5,8a-tetraaza-s-indacen-6-yl]methanol]: the IC50 is below 10 µM. The same measure for `CCOc1ccc(Nc2c3c(nc4ccnn24)N(CCN)CC3)cc1` [A-005]: below 10 µM. As to `CCOc1ccc(Nc2c3c(nc4ccnn24)N([C@H]2CCCNC2)CCC3)cc1` [B-001], the IC50 was below 10 µM. Regarding `c1cc2nc3c(c(NC4CCCC4)n2n1)CCN3[C@H]1CCCNC1` [A-027], the IC50 is below 10 µM. Turning to `c1ccc(CNc2c3c(nc4ccnn24)N([C@H]2CCCNC2)CC3)cc1` [A-025], the IC50 is below 10 µM. Regarding `CCOc1ccc(Nc2c3c(nc4ccnn24)N(C2CCCC(N)C2)CCC3)cc1` (stereo not shown) [B-013], the IC50 is 50 to 100 µM. For `CCOc1ccc(Nc2c3c(nc4ccnn24)N(C2CCN(CC)C2)CCC3)cc1` (stereo not shown) [B-022] the value was 10 to 50 µM. As to `Cc1nc2ccc(Nc3c4c(nc5ccnn35)N([C@H]3CCCNC3)CC4)cc2s1` [A-022, (S)-(2-methylbenzothiazol-6-yl)(5-piperidin-3-yl-6,7-dihydro-5H-1,4,5,8a-tetraaza-s-indacen-8-yl)amine], the IC50 was below 10 µM.
